According to US6288082A, “Substituted 3-cyanoquinolines” (priority 1999, dated 2001):
pIC50: −log10 of the molar value. Several values for one entry are separate records, joined by “and”; a condition that tells them apart may be missing. Identical values can stand only once. Counter-ions that a name gives are not always drawn.

The compounds below were run against Mitogen Activated Protein Kinase (Mek-Erk) (assay: Mitogen Activated Protein Kinase (MAPK) assay, coupled Mek-Erk). Conditions: MBP or Myc peptide substrate, pH 7.4.
Type: biochemical, human
Description: Mitogen Activated Protein Kinase (MAPK) Assay
To evaluate inhibitors of the MAP (mitogen activated protein) kinase a two component coupled standard pharmacological test procedure, which measures phosphorylation of a serine/threonine residue in an appropriate sequence in the substrate in the presence and absence of a putative inhibitor, was used. Recombinant human MEK 1 (MAPKK) was first used to activate recombinant human ERK2 (MAPK) and the activated MAPK (ERK) was incubated with substrate (MBP peptide or MYC peptide) in the presence of ATP, Mg^+2 and radiolabeled ^33 P ATP. The phosphorylated peptide was captured on a P 81 phosphocellulose filter (paper filter or embedded in microtiter plate) washed and counted by scintillation methods.
The peptide substrates used in the assay are MBP, peptide substrate ([…]), or synthetic Myc substrate, ([…]·5 TFA. The recombinant enzymes used were prepared as GST fusion proteins of human ERK 2 and human MEK 1. Inhibitor samples were prepared as 10×stocks in 10% DMSO and an appropriate aliquot was used to deliver either 10 ug/ml for a single point screening dose or 100, 10, 1, and 0.1 uM final concentration for a dose response curve. Final DMSO concentrations were less than or equal to 1%.
The reaction was run as follows in 50 mM Tris kinase buffer, pH 7.4 in a reaction volume of 50 ul. The appropriate volume of kinase buffer and inhibitor sample was added to the tube. Appropriate dilution of enzyme was delivered to give 2-5 ug recombinant MAPK (Erk ) per tube. The inhibitor was incubated with MAPK (Erk) for 30 min at 0 deg. C. Recombinant Mek (MAPKK) (0.5-2.5 ug) or fully activated Mek (0.05-0.1 units) was added to activate the Erk and incubated for 30 min at 30° C. Then substrate and gamma ^33 P ATP was were added to give a final concentration of 0.5-1 mM MBPP or 250-500 uM Myc; 0.2-0.5 uCi gamma P 33 ATP/tube; 50 μM ATP final concentration. Samples were incubated at 30° C. for 30 minutes and the reaction was stopped by adding 25 μl of ice cold 10% TCA. After samples were chilled on ice for 30 min, 20 μl of sample was transferred onto P 81 phosphocellulose filter paper or appropriate MTP with embedded P 81 filter. Filter papers or MTP were washed 2 times with a large volume of 1% acetic acid, then 2 times with water. The filters or MTP were briefly air dried before addition of scintillant and samples were counted in the appropriate scintillation counter set up for reading ^33 P isotope. Samples included a positive control (activated enzyme plus substrate); a no enzyme control; a no substrate control; samples with different concentrations of putative inhibitor; and samples with reference inhibitors (other active compounds or non-specific inhibitors such as staurosporine or K252 B).
The raw data was captured as cpm. Sample replicates were averaged and corrected for background count. Mean cpm data was tabulated by group and % inhibition by a test compound was calculated as (corrected cpm control-corrected. cpm sample/control)×100=% inhibition. […] The results obtained for representative compounds of this invention are listed in TABLE 2 where there may be separate entries for the same compound; this is an indication that the compound was evaluated more than one time.

pIC50 | SMILES
5.10 | COc1cc2c(Nc3ccc4cn[nH]c4c3)c(C#N)cnc2cc1OCCN(C)C [Example 167, 7-(2-Dimethylaminoethoxy)-4-(1H-indazol-6-ylamino)-6-methoxyquinoline-3-carbonitrile]
< 4.00 | COc1ccc2c(Nc3ccc4[nH]nnc4c3)c(C#N)cnc2c1 [Example 144, 4-(3H-benzotriazol-5-ylamino)-7-methoxy-quinoline-3-carbinitile]
< 4.00 | COc1cc2ncc(C#N)c(Nc3cccc4cccnc34)c2cc1OC [Example 134, 6,7-Dimethoxy-4-(quinolin-8-ylamino)-quinoline-3-carbonitrile]
4.05 | COc1cc2ncc(C#N)c(Nc3cccc4cnccc34)c2cc1OC [Example 133, 4-(Isoquinolin-5-ylamino)-6,7-dimethoxy-quinoline-3-carbonitrile]
4.82 | COc1cc2ncc(C#N)c(Nc3ccc4cn[nH]c4c3)c2cc1OCCCN1CCOCC1 [Example 139, 4-(1H-Indazol-6-ylamino)-7-methoxy-6-(3-morpholine-4-yl-propoxy)-quinoline-3-carbonitrile hydrochloride]
< 4.00 | COc1cccc2c(Nc3ccc4cn[nH]c4c3)c(C#N)cnc12 [Example 148, 4-(1H-Indazol-6-ylamino)-8-methoxy-quinoline-3-carbonitrile]
4.46 | COc1cc2c(Nc3ccc4nn[nH]c4c3)c(C#N)cnc2c(OC)c1OC [Example 156, 4-(3H-Benzotriazol-5-ylamino)-6,7,8-Trimethoxy-quinoline-3-carbonitrile]
4.26 | CCOc1cc2ncc(C#N)c(Nc3ccc4ncsc4c3)c2cc1OCC [Example 97, 4-(Benzothiazol-6-ylamino)-6,7-diethoxy-quinoline-3-carbonitrile HCl Salt]
< 4.00 | COc1cccc2c(Nc3ccc4nn[nH]c4c3)c(C#N)cnc12 [Example 149, 4-(3H-benzotriazol-5-ylamino)-8-methoxy-quinoline-3-carbonitrile]
< 4.00 and 4.00 | COc1cc2c(Nc3ccc4cn[nH]c4c3)c(C#N)cnc2c(OC)c1OC [Example 128, 4-(1H-Indazol-6-ylamino)-6,7,8-trimethoxy-quinoline-3-carbonitrile]
< 4.00 | COc1cc2ncc(C#N)c(Nc3ccc(O)c4ncccc34)c2cc1OC [Example 135, 4-(8-Hydroxy-quinolin-5-ylamino)-6,7-dimethoxy-quinoline-3-carbonitrile]
< 4.00 | COc1cc2ncc(C#N)c(Nc3ccc4ncccc4c3)c2cc1OC [Example 153, 6,7-Dimethoxy-4-(quinoline-6-ylamino)-quinoline-3-carbonitrile]
5.40 | COc1cc2ncc(C#N)c(Nc3cccc4c3CCCC4)c2cc1OC [Example 155, 6,7-Dimethoxy-4-(5,6,7,8,-tetrahydro-naphthalen-1-ylamino)-quinoline-3-carbonitrile]
< 4.00 | CCOc1cc2ncc(C#N)c(Nc3ccc4[nH]c(=O)oc(=O)c4c3)c2cc1OCC [Example 109, 4-(2,4-Dioxo-1,4-dihydro-2H-benzo[d][1,3]oxazin-6-ylamino)-6,7-diethoxy-quinoline-3-carbonitrile]
< 4.00 | CCOc1cc2ncc(C#N)c(Nc3ccc4c(c3)S(=O)(=O)C=C4)c2cc1OCC [Example 112, 4-(1,1-Dioxo-1H-benzo[b]thiophen-6-ylamino)-6,7-diethoxy-quinoline-3-carbonitrile]
< 4.00 | COc1cc2ncc(C#N)c(Nc3ccc4[nH]c(=O)sc4c3)c2cc1OC [Example 131, 6,7-Dimethoxy-4-(2-oxo-2,3-dihydro-benzothiazol-6-ylamino)-quinoline-3-carbonitrile]
4.46 | N#Cc1cnc2cc3c(cc2c1Nc1ccc2cn[nH]c2c1)OCCO3 [Example 125, 9-(1H-Indazol-6-ylamino)-2,3-dihydro[1,4]dioxino[2,3-g]quinoline-8-carbonitrile]
< 4.00 | COc1ccc(OC)c2c(Nc3ccc4cn[nH]c4c3)c(C#N)cnc12 [Example 138, 4-(1H-Indazol-6-ylamino)-5,8-dimethoxy-quinoline-3-carbonitrile]
4.46 | CCOc1cc2ncc(C#N)c(Nc3ccc4c(c3)C(=O)NC4=O)c2cc1OCC [Example 104, 4-(1,3-Dioxo-2,3-dihydro-1H-isoindol-5-ylamino)-6,7-diethoxy-quinoline-3-carbonitrile]
5.22 | COc1ccc2c(Nc3ccc4cn[nH]c4c3)c(C#N)cnc2c1 [Example 143, 4-(1H-Indazol-6-ylamino)-7-methoxy-quinoline-3-carbonitrile]
< 4.00 | COc1cc2ncc(C#N)c(Nc3ccc4c(C)cc(=O)[nH]c4c3)c2cc1OC [Example 129, 6,7-Dimethoxy-4-(4-methyl-2-oxo-1,2-dihydro-quinolin-7-ylamino)-quinoline-3-carbonitrile]
5.52 | COc1ccc2c(Nc3ccc4[nH]ccc4c3)c(C#N)cnc2c1 [Example 146, 4-(1H-Indol-5-ylamino)-7-methoxy-quinoline-3-carbonitrile]
4.52 | COc1ccc2ncc(C#N)c(Nc3ccc4nn[nH]c4c3)c2c1 [Example 142, 4-(3H-Benzotriazol-5-ylamino)-6-methoxy-quinoline-3-carbonitrile]
5.52 | COc1ccc2ncc(C#N)c(Nc3ccc4cn[nH]c4c3)c2c1 [Example 141, 4-(1H-Indazol 6-ylamino)-6-methoxy-quinoline-3-carbonitrile]
4.05 | COc1cc2ncc(C#N)c(Nc3cccc4ncccc34)c2cc1OC [Example 132, 6,7-Dimethoxy-4-(quinolin-5-ylamino)-quinoline-3-carbonitrile]
< 4.00 | CCOc1cc2c(Nc3ccc4cn[nH]c4c3)c(C#N)cnc2cc1OC [Example 126, 6-Ethoxy-4-(1H-indazol-6-ylamino)-7-methoxyquinoline-3-carbonitrile]
6.30 | COc1cc2ncc(C#N)c(Nc3ccc4cn[nH]c4c3)c2cc1OC [Example 102, 6,7-Dimethoxy-4-(1H-indazol-6-ylamino)-quinoline-3-carbonitrile]
< 4.00 | COc1cc2ncc(C#N)c(Nc3ccc4sc(C)nc4c3)c2cc1OC [Example 130, 6,7-Dimethoxy-4-(2-methyl-benzothiazol-5-ylamino)-quinoline-3-carbonitrile]
< 4.00 | COc1cc2ncc(C#N)c(Nc3ccc4[nH]c(C)nc4c3)c2cc1OC [Example 152, 6,7-Dimethoxy-4-(2-methyl-1H-benzoimidazol-5-ylamino)-quinoline-3-carbonitrile]

Same assay, conditions: MBP or Myc peptide substrate, pH 7.4; hydrochloride

pIC50 | SMILES
4.66 and 4.82 | COc1cc2ncc(C#N)c(Nc3ccc4[nH]nnc4c3)c2cc1OCCCN1CCOCC1 [Example 140, 4-(3H-Benzotriazol-5-ylamino)-7-methoxy-6-(3-morpholin-4-yl-proloxy)-quinoline-3-carbonitrile hydrochloride]
